# Results reported in patent US20230114728A1 (Venatorx Pharmaceuticals, Inc., priority 2019, published 2023).
# How the values were obtained:
# A. baumannii PBP2 = target: T1, A. baumannii PBP2 (Acinetobacter baumannii, UniProt D0C8Z9); test: Bocillin-FL fluorescence polarization competition binding assay, A. baumannii PBP2; conditions: fluorescence polarization competition binding assay using Bocillin-FL; read-out: A. baumannii PBP2 Potency
# T1 construct: made in house
# T1 sequence (D0C8Z9 1-672): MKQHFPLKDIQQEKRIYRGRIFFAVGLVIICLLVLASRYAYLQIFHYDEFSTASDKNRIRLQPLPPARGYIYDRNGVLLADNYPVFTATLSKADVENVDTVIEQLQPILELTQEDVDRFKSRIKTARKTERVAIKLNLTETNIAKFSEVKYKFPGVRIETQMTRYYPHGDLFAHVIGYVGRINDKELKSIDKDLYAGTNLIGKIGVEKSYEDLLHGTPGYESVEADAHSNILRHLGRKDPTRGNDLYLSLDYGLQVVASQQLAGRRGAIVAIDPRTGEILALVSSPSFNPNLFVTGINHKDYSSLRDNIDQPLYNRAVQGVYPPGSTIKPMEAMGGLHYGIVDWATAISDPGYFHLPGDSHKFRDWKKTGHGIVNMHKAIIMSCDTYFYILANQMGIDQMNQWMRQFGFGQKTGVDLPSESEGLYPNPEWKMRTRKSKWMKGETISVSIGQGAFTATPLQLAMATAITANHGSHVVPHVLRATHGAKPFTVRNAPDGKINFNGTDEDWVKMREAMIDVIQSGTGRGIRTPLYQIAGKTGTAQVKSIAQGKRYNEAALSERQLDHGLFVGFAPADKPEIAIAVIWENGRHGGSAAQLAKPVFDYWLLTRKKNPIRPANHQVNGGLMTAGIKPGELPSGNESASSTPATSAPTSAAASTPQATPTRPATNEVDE
# Procedure, shortened: (§1)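 Fluorescence polarization (ex 490/em 520 nm) competition of inhibitors against Bocillin-FL at 0.1 μM, read up to 60 min. Final PBP levels: E. coli PBP3 1.5 μM; A. baumannii PBP2 2.5 μM, PBP3 0.2 μM in Tris pH 8.0/NaCl/glycerol/Tween 20; N. gonorrhoeae PBP2 […] in Hepes pH 8.0/NaCl/glycerol. EC50 = concentration halving PBP-bound Bocillin-FL.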
# [1] = Bocillin-FL fluorescence polarization competition binding assay, A. baumannii PBP3; conditions: fluorescence polarization competition binding assay using Bocillin-FL; column 3; read-out: 4. baumannii PBP1a Potency
# Procedure, shortened: as §1
# N. gonorrhoeae PBP2 = target: T2, N. gonorrhoeae PBP2 (Neisseria gonorrhoeae, UniProt P08149); test: Bocillin-FL fluorescence polarization competition binding assay, N. gonorrhoeae PBP2; conditions: fluorescence polarization competition binding assay using Bocillin-FL; read-out: N. gonorrhoeae PBP2 Potency
# T2 construct: made in house
# T2 sequence (P08149 whole entry): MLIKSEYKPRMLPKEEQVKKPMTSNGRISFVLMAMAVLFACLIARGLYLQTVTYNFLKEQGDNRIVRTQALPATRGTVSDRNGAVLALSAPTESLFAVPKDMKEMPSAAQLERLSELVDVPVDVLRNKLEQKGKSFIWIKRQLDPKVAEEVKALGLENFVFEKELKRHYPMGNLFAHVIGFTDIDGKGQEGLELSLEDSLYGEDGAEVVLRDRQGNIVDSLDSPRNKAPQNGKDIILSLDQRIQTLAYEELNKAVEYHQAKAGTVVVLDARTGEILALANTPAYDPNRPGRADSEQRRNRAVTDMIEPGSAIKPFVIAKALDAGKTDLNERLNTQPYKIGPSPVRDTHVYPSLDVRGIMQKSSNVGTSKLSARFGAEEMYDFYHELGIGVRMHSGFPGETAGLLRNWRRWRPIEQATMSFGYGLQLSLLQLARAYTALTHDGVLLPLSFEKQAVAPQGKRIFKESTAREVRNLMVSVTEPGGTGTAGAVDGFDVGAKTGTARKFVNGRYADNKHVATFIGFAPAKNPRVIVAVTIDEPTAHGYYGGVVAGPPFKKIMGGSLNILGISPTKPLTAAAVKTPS
# Procedure, shortened: as §1
SMILES,EC50 (A. baumannii PBP2),EC50 [1],EC50 (N. gonorrhoeae PBP2)
"NCCN1CCN(C(=O)N[C@@H](C(=O)N[C@H]2Cc3ccc(F)c(C(=O)O)c3OB2O)c2cc(F)c(O)c(O)c2Cl)C(=O)C1=O (single isomer, unassigned) [Example 179]",> 100 µM,> 100 µM,> 100 µM
"NCCCN1CCN(C(=O)N[C@@H](C(=O)N[C@H]2Cc3ccc(F)c(C(=O)O)c3OB2O)c2cc(F)c(O)c(O)c2Cl)C(=O)C1=O (single isomer, unassigned) [Example 180]",> 100 µM,> 100 µM,> 100 µM
"C[C@@H](O)[C@@H](NC(=O)N1CCN(CCNC(=O)c2c(F)cc(O)c(O)c2Cl)C(=O)C1=O)C(=O)N[C@H]1Cc2ccc(F)c(C(=O)O)c2OB1O [Example 102, (R)-3-((2R,3R)-2-(4-(2-(2-chloro-6-fluoro-3,4-dihydroxybenzamido)ethyl)-2,3-dioxopiperazine-1-carboxamido)-3-hydroxybutanamido)-7-fluoro-2-hydroxy-3,4-dihydro-2H-benzo[e][1,2]oxaborinine-8-carboxylic acid]",> 100 µM,30 to 100 µM,10 to 30 µM
"NS(=O)(=O)Nc1cccc(C(NC(=O)N2CCN(Cc3c(F)cc(O)c(O)c3Cl)C(=O)C2=O)C(=O)N[C@H]2Cc3cccc(C(=O)O)c3OB2O)c1 (stereo partly drawn) [Example 131, (3R)-3-(2-(4-(2-chloro-6-fluoro-3,4-dihydroxybenzyl)-2,3-dioxopiperazine-1-carboxamido)-2-(3-(sulfamoylamino)phenyl)acetamido)-2-hydroxy-3,4-dihydro-2H-benzo[e][1,2]oxaborinine-8-carboxylic acid]",30 to 100 µM,< 10 µM,
"NS(=O)(=O)c1cc(O)cc(C(NC(=O)N2CCN(Cc3c(F)cc(O)c(O)c3Cl)C(=O)C2=O)C(=O)N[C@H]2Cc3cccc(C(=O)O)c3OB2O)c1 (stereo partly drawn) [Example 132, (3R)-3-(2-(4-(2-chloro-6-fluoro-3,4-dihydroxybenzyl)-2,3-dioxopiperazine-1-carboxamido)-2-(3-hydroxy-5-sulfamoylphenyl)acetamido)-2-hydroxy-3,4-dihydro-2H-benzo[e][1,2]oxaborinine-8-carboxylic acid]",> 100 µM,< 10 µM,
"CCN1CCN(C(=O)NC(C(=O)N[C@H]2Cc3cccc(C(=O)O)c3OB2O)c2c(F)cc(N)cc2F)C(=O)C1=O (stereo partly drawn) [Example 181, (3R)-3-(2-(4-amino-2,6-difluorophenyl)-2-(4-ethyl-2,3-dioxopiperazine-1-carboxamido)acetamido)-2-hydroxy-3,4-dihydro-2H-benzo[e][1,2]oxaborinine-8-carboxylic acid]",> 100 µM,> 100 µM,> 100 µM
